This note sets out measurements from publication PMC8605023 (Nature Communications, 2021).

Ends that are not written are not given here. Peptide text beside a SMILES is read from it. * marks the point of attachment. FITC = O=C1OC2(c3ccc(O)cc3Oc3cc(O)ccc32)c2ccc(NC(=S)*)cc21

One test deals with T1, AP2M1 (Homo sapiens, UniProt Q96CW1).
T1 construct: His-GST (cleaved yes); made in house; host or cells: E. coli BL21-Gold(DE3)
T1 sequence (Q96CW1 160-435 limits assumed): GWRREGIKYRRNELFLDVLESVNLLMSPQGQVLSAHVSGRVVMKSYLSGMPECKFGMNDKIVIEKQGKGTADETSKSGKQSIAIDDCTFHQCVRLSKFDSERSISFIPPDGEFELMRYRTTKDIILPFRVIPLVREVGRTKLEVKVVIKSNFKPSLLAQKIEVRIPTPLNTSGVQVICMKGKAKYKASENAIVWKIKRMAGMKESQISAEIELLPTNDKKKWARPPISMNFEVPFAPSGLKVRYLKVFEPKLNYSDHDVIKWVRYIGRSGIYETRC
Nature of the test: FP saturation (direct) binding of FITC-labeled probe peptide, AP2M1. The protocol:
(§1) Proteins used for FP affinity measurements were expressed and purified in larger-scale bacterical cultures (at least 8 × 500 mL 2YT). His-GST-tagged G3BP1 and G3BP2 were used directly for affinity measurements after dialysis.
(§2) FP experiments were carried out using a SpectraMax iD5 multimode microplate reader (Molecular Devices) using a black half area 96-well plate (Corning, USA #3993) with a total volume of 50 μL. The settings used were 485 nm for excitation and 535 nm for emission.
(§3) Peptides were from GeneCust (France) with a purity of over 95%. FITC-labeled peptides were dissolved in dimethyl sulfoxide (DMSO). Unlabelled peptides were dissolved in phosphate buffer (50 mM phosphate buffer pH 7.5 and 1–2 mM reducing agent DTT or TCEP). All measurements were performed at least in triplicates. For saturation binding experiment, proteins were serially diluted in the plate with phosphate buffer in a volume 25 μL, and then supplemented with a master mix of 10 nM FITC-labeled peptide in phosphate buffer. […] Twenty-five mitroliter of this displacement master mix was added to unlabeled peptides, which were serially diluted in the plate in 25 μL phosphate buffer.
(§4) The data were analysed with GraphPad Prism version 9.0.0 for MacOS (GraphPad Software, San Diego, California USA, www.graphpad.com). […]

Test [1] deals with FERM domain of Ezrin (EZR) (Homo sapiens, UniProt P15311). Nature of the test: biochemical. In kind it is binding.
The target of test [2] is T2, MAP1LC3C (Homo sapiens, UniProt Q9BXW4).
T2 construct: His-GST (cleaved yes); made in house; host or cells: E. coli BL21-Gold(DE3)
The test can be described thus: biochemical. In kind it is binding.

Test [3] has as its target T3, USP7 (Homo sapiens, UniProt Q93009).
T3 construct: His-GST (cleaved yes); made in house; host or cells: E. coli BL21-Gold(DE3)
The test can be described thus: biochemical. In kind it is binding.

For test [4], the target named is T2, MAP1LC3C. Nature of the test: FP saturation (direct) binding of FITC-labeled probe peptide, MAP1LC3C. As for the experimental part:
as §1, §2, §3, §4

Test [5] concerns the target T3, USP7. Nature of the test: FP saturation (direct) binding of FITC-labeled probe peptide, USP7. The note with it: Kd direct binding of 10 nM FITC probe, saturation with protein. The protocol: as §1, §2, §3, §4

T3 sequence (Q93009 63-205 limits assumed): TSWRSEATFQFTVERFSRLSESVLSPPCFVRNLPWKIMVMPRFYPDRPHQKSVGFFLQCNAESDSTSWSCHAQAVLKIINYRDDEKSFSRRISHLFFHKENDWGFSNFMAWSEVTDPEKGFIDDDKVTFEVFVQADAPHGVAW
T2 sequence (Q9BXW4 1-126 limits assumed): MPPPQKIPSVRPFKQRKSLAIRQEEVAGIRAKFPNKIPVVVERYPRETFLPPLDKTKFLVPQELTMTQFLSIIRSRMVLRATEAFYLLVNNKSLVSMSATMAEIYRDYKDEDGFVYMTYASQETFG
Chain of FERM domain of Ezrin (EZR) (P15311 2-296 limits assumed): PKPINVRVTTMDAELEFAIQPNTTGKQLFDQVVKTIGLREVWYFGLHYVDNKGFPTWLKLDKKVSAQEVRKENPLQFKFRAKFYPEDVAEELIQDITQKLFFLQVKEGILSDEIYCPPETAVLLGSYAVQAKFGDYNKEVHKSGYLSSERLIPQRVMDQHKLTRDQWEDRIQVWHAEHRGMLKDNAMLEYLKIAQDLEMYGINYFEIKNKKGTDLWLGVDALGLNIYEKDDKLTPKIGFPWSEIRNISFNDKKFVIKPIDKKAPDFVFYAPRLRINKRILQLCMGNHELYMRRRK

For `CC(C)C[C@H](NC(=O)[C@H](CCCNC(=N)N)NC(=O)[C@H](CCC(N)=O)NC(=O)[C@H](Cc1ccc(O)cc1)NC(=O)[C@H](CCC(=O)O)NC(=O)[C@@H](NC(=O)[C@H](CC(=O)O)NC(=O)[C@H](Cc1ccccc1)NC(=S)Nc1ccc2c(c1)C(=O)OC21c2ccc(O)cc2Oc2cc(O)ccc21)[C@@H](C)O)C(=O)N[C@@H](CCC(=O)O)C(=O)N[C@@H](C)C(=O)N[C@@H](CO)C(=O)O` [ATG9A 4-14 Human] (HELM PEPTIDE1{[O=C1OC2(c3ccc(O)cc3Oc3cc(O)ccc32)c2ccc(NC(=S)[*:2])cc21].F.D.T.E.Y.Q.R.L.E.A.S}$$$$V2.0), the dissociation constant (Kd) at AP2M1 came out at 1100 ± 30 nM.

On to `CC[C@H](C)[C@H](NC(=O)[C@H](CC(C)C)NC(=O)[C@@H](NC(=O)CNC(=O)[C@@H](NC(=O)[C@H](CCC(=O)O)NC(=O)[C@H](CCC(=O)O)NC(=O)[C@H](CO)NC(=O)[C@@H](NC(=O)[C@H](Cc1ccccc1)NC(=O)[C@H](CO)NC(=O)[C@H](Cc1ccc(O)cc1)NC(=O)[C@@H](N)CCSC)C(C)C)[C@@H](C)O)[C@@H](C)O)C(=O)N[C@H](C(=O)N[C@@H](CC(N)=O)C(=O)N[C@@H](CO)C(=O)O)C(C)C` [E 1-16 Sars-CoV2/Sars-CoV] (H-MYSFVSEETGTLIVNS-OH), for which the dissociation constant Kd in test [1] is 57.9 ± 0.4 µM.

On to `CC(C)C[C@H](NC(=O)[C@@H](NC(=O)[C@H](CC(=O)O)NC(=O)[C@H](Cc1ccccc1)NC(=O)[C@H](CO)NC(=O)[C@H](CC(N)=O)NC(=O)[C@H](CO)NC(=O)[C@@H](NC(=O)[C@H](CCC(=O)O)NC(=O)[C@@H](N)C(C)C)[C@@H](C)O)C(C)C)C(=O)N[C@@H](CCCCN)C(=O)N[C@@H](CO)C(=O)N[C@@H](CCC(=O)O)C(=O)N[C@@H](CC(=O)O)C(=O)N[C@@H](C)C(=O)N[C@@H](CCC(N)=O)C(=O)N[C@@H](Cc1ccc(O)cc1)C(=O)O` [NSP3 2019-2034 Sars-CoV2], for which, at MAP1LC3C [2], inhibition was half-maximal at 1.53 mM (IC50), binding was characterised by a dissociation constant (Kd) of 210 ± 18 µM and the inhibitory constant (Ki) is 210 µM. In addition, the Kd in test [1] amounted to 19.8 ± 0.4 µM. In addition, on USP7 [3], it took 270 µM to reach half-maximal inhibition (IC50), the Kd was found to be 37 ± 0.2 µM and the affinity corresponds to a Ki of 37 µM.

Take `CC(C)C[C@H](NC(=O)[C@H](Cc1c[nH]cn1)NC(=O)[C@@H](NC(=O)[C@H](Cc1c[nH]c2ccccc12)NC(=O)[C@H](CC(=O)O)NC(=O)[C@H](CC(=O)O)NC(=O)[C@H](CC(=O)O)NC(=S)Nc1ccc2c(c1)C(=O)OC21c2ccc(O)cc2Oc2cc(O)ccc21)[C@@H](C)O)C(=O)N[C@@H](CO)C(=O)N[C@@H](CO)C(=O)N[C@@H](CCCCN)C(N)=O` [SQSTM1 335-344 Human]: at MAP1LC3C [4], binding was characterised by a dissociation constant (Kd) of 1100 ± 30 nM.

In the case of “{FITC}-DYSQPSTSSSIIY [MDM2 393-414 Human]”, the “Ki displacement/Kd direct binding” value with USP7 [5] stood at 0.49 µM.

As usually defined, the Kd is the concentration at which binding is half-saturated. By IC50 is commonly meant the concentration that inhibits the measured activity by half. A lower IC50 goes with higher potency. As usually defined, the Ki is a measure of affinity in units of concentration, obtained from inhibition or displacement. Higher therefore signals a looser hold on the target.
